Reference: US7943630B2, “3,9-diaza-spiro[5.5]undecane derivatives and their use as monoamine neurotransmitter re-uptake inhibitors” (Neurosearch A/S, priority 2005, dated 2011)

A melting point of 95.5 to 97.4 °C was found for Clc1ccc(N2CCC3(CCNCC3)CC2)cc1 [7th compound of method C, 3-(4-Chloro-phenyl)-3,9-diaza-spiro[5.5]undecane] in this work. A melting point of 103 to 105 °C was found for Brc1ccc(N2CCC3(CCNCC3)CC2)nc1 in this work. A melting point of 209 to 212 °C was found for Clc1ccc(N2CCC3(CCNCC3)CC2)cc1Cl [4th compound of method C, 3-(3,4-Dichloro-phenyl)-3,9-diaza-spiro[5.5]undecane] in this work. A melting point of 201.4 to 202.2 °C was found for Fc1ccc(N2CCC3(CCNCC3)CC2)cc1Cl.O=C(O)/C=C/C(=O)O in this work. A melting point of 175.8 to 177.6 °C was found for COc1ccc2cc(N3CCC4(CCNCC4)CC3)ccc2c1 [3rd compound of method C, 3-(6-Methoxy-naphthalen-2-yl)-3,9-diaza-spiro[5.5]undecane] in this work. A melting point of 80.4 to 81.9 °C was found for Clc1cccc(N2CCC3(CCNCC3)CC2)c1Cl in this work. A melting point of 71.2 to 72.9 °C was found for Clc1ccc(N2CCC3(CCNCC3)CC2)nc1 in this work. A melting point of 198.5 to 199.3 °C was found for Brc1cccc(N2CCC3(CCNCC3)CC2)n1.O=C(O)/C=C/C(=O)O in this work. A melting point of 158 to 162 °C was found for c1ccc2cc(N3CCC4(CCNCC4)CC3)ccc2c1 [10th compound of method C, 3-Naphthalen-2-yl-3,9-diaza-spiro[5.5]undecane] in this work.
